We go through seven molecules from patent EP0761658A1, “Azole-phenyl urea derivatives as ACAT inhibitors and their production” (NIHON NOHYAKU CO., LTD., priority 1995, dated 1997).

Experiment [1] deals with acyl-CoA:cholesterol acyltransferase (ACAT). As to the kind of experiment: Inhibitory activity on acyl-CoA:cholesterol acyltransferase (ACAT), microsomal fraction of intestinal mucosa, [1-14C]oleyl-CoA incorporation into cholesterol esters. In kind it is biochemical, white rabbit. The settings on record: compound concentration 0.01 µm; rabbit intestinal mucosa microsomes. How it is done: The enzyme used in the test was prepared according to the method of Heider et al. [J. Lipid Res. 24, 1127 (1983)]. A white rabbit was killed by blood-letting under anesthesia, after which its intestinal mucosa was collected and then homogenized, and microsomal fraction was obtained by stepwise centrifugation. The microsomal fraction was suspended in 0.154 M phosphate buffer (pH 7.4) and stored at -80°C until use.
ACAT activity was determined by a modification of the method of Helgerud et al. [J. Lipid Res. 22, 271 (1981)] by measuring radioactivity incorporated into cholesterol esters from [1-^14C]oleyl-CoA, as an indication. As to the ACAT-inhibitory activity of each compound to be tested, the inhibition rate was calculated by the following equation. Inhibition rate (%) =([ACAT activity of control group which was given solvent]-[ACAT activity of group treated with compound to be tested])/([ACAT activity of control group which was given solvent])x 100 [formula]

Experiment [2] has as its system rats fed on a high-cholesterol diet. As to the kind of experiment: Serum cholesterol lowering activity in rats fed on a high-cholesterol diet. The format is in vivo, Male Sprague-Dawley rats. The settings on record: Rattus norvegicus, 96 h; total serum cholesterol; 30 mg per kg of body weight per day for 4 days, suspended in 0.5% carboxymethyl cellulose; blood 24 hours after last administration; read-out: Reduction rate (%). The method, then: Male Sprague-Dawley rats of 6-week-old were divided into three groups. The first group (normal group) was fed an ordinary diet for 4 days. The second group (control group) was fed a high cholesterol diet (containing 1.0% cholesterol, 1.0% cholic acid and 8.5% coconut oil) for 4 days. The third group (treated group) was fed a high cholesterol diet and was treated with a compound for 4 days.
Simultaneously with the beginning of the above feeding, the compound was suspended in a 0.5% carboxymethyl cellulose solution and administered to the treated group, in a dose of 30 mg (in terms of the compound) per kg of body weight per day for 4 days. A 0.5% carboxymethyl cellulose solution was also administered to the normal group and the control group in the same manner as above.
After 24 hours of the last administration, blood was collected and the cholesterol concentration in serum was measured by an enzymatic method. The reduction rate of the total serum cholesterol concentration was calculated from values obtained for the three groups by the following equation. Choresterol reduction rate (%) =((A) - (B))/((A) - (C))x 100 [formula] wherein A: the serum cholesterol concentration of the control group. B: the serum cholesterol concentration of the treated group. C: the serum cholesterol concentration of the normal group.

In the case of `Cc1ccccc1-c1sc(-c2ccccc2)nc1NC(=O)Nc1c(C(C)C)cccc1C(C)C` [Compound 27, N-(2,6-Diisopropylphenyl)-N'-[5-(2-methylphenyl)-2-phenylthiazol-4-yl]urea], the Inhibition rate % in experiment [1] is recorded as 86.5%. Besides, in experiment [2], the inhibition in vivo at 30 mg/kg was determined as 61.7%.

On to `CCc1cccc(CC)c1NC(=O)Nc1nc(-c2ccccc2)sc1-c1ccccc1C` [Compound 28, N-(2,6-Diethylphenyl)-N'-[5-(2-methylphenyl)-2-phenylthiazol-4-yl]urea], for which the Inhibition rate % in experiment [1] came to 64.1%. Also, the inhibition in vivo at 30 mg/kg in experiment [2] came out at 87.8%.

For the molecule `Cc1nc(NC(=O)Nc2c(C(C)C)cccc2C(C)C)c(-c2ccccc2C)s1` [Compound 29, N-(2,6-Diisopropylphenyl)-N'-[2-methyl-5-(2-methylphenyl)thiazol-4-yl]urea], the Inhibition rate % in experiment [1] amounted to 90.2%. The inhibition in vivo at 30 mg/kg in experiment [2] stood at 46.1%.

As to `CSc1ccccc1-c1sc(-c2ccccc2)nc1NC(=O)Nc1c(C(C)C)cccc1C(C)C` [Compound 30, N-(2,6-Diisopropylphenyl)-N'-[5-(2-methylthiophenyl)-2-phenylthiazol-4-yl]urea], in experiment [1], the Inhibition rate % was determined as 76.8%. In addition, the inhibition in vivo at 30 mg/kg in experiment [2] came out at 75.7%.

In turn, `Cc1ccccc1-c1oc(-c2ccccc2)nc1NC(=O)Nc1c(C(C)C)cccc1C(C)C` [Compound 31, N-(2,6-Diisopropylphenyl)-N'-[5-(2-methylphenyl)-2-phenyloxazol-4-yl]urea] registered an Inhibition rate % in experiment [1] of 70.6%. In addition, in experiment [2], the inhibition in vivo at 30 mg/kg amounted to 59.8%.

As for `Cc1ccccc1-c1nc(-c2ccccc2)oc1NC(=O)Nc1c(C(C)C)cccc1C(C)C` [Compound 33, N-(2,6-Diisopropylphenyl)-N'-[4-(2-methylphenyl)-2-phenyloxazol-5-yl]urea], the Inhibition rate % in experiment [1] is 62.0%. In addition, the inhibition in vivo at 30 mg/kg in experiment [2] was determined as 73.2%.

Consider `CC(C)c1cccc(C(C)C)c1NC(=O)Nc1nc(-c2ccccc2)n(Cc2ccccc2)c1-c1ccccc1Cl` [Compound 37, N-[1-Benzyl-5-(2-chlorophenyl)-2-phenylimidazol-4-yl]-N'-(2,6-diisopropylphenyl)urea], for which the Inhibition rate % in experiment [1] turned out to be 80.4%. In addition, the inhibition in vivo at 30 mg/kg in experiment [2] was found to be 59%.
